Experimental data from patent US20230416262A1, “TRPML MODULATORS” (Casma Therapeutics, Inc., priority 2020, published 2023).

Legend:
TFEB = TFEB nuclear translocation assay; assay type: cell-based; details: Homo sapiens; HeLa wt or HeLa TRPML1 KO cells, treated for 2 hrs; ratio of nuclear to ring-region TFEB intensity
Outline: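 HeLa wild-type or TRPML1 KO cells treated 2 h with compound at 37 °C, PFA-fixed, immunostained for TFEB (Alexa 488) with Hoechst nuclei. Imaged at ×20, four fields/well. Value is ratio of nuclear to perinuclear-ring TFEB intensity, with nuclei counts.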

THP-1 cells = assay: Lamp1 lysosomal exocytosis assay; assay type: cell-based; details: Homo sapiens, 55 min, 55 min incubation, top dose 20 μM
Outline: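 THP-1 cells (1e5/well) exposed to a 7-point 3-fold compound series, top final 20 μM, for 55 min at 37°C. Surface Lamp1 then stained with Lamp1-PE on ice in buffer containing 80 μM Dynasore, and read by flow cytometry as PE geometric mean on live, sytox-negative singlets.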

Row | SMILES | EC50 (TFEB) | EC50 (THP-1 cells)
1 | O=S(=O)(c1ccc(C(F)F)cc1)N1CC2(CCN(Cc3ncccn3)CC2)c2ccccc21 [Compound I-167, 1-[4-(difluoromethyl)benzenesulfonyl]-1′-[(pyrimidin-2-yl)methyl]-1,2-dihydrospiro[indole-3,4′-piperidine]] | 8.01 to 9.99 µM | ≥ 5.01 µM
2 | O=S(=O)(c1ccc(C(F)F)cc1)N1CC2(CCN(Cc3ccccc3)CC2)c2ccccc21 [Compound I-168, 1′-benzyl-1-[4-(difluoromethyl)benzenesulfonyl]-1,2-dihydrospiro[indole-3,4′-piperidine]] | ≤ 2 µM | ≥ 5.01 µM
3 | O=C(Oc1ccccc1)N1CCC2(CC1)CN(S(=O)(=O)c1ccc(C(F)F)cc1)c1ccccc12 [Compound I-169, phenyl 1-((4-(difluoromethyl)phenyl)sulfonyl)spiro[indoline-3,4′-piperidine]-1′-carboxylate] | ≤ 2 µM | ≥ 5.01 µM
4 | O=C(OCC1CC1)N1CCC2(CC1)CN(S(=O)(=O)c1ccc(C(F)F)cc1)c1ccccc12 [Compound I-170, cyclopropylmethyl 1-((4-(difluoromethyl)phenyl)sulfonyl)spiro[indoline-3,4′-piperidine]-1′-carboxylate] | ≤ 2 µM | 0.51 to 1 µM
5 | O=C(CCc1ccccc1)N1CCC2(CC1)CN(S(=O)(=O)c1ccc(C(F)F)cc1)c1ccccc12 [Compound I-174, 1-(1-((4-(difluoromethyl)phenyl)sulfonyl)spiro[indoline-3,4′-piperidin]-1′-y1)-3-phenylpropan-1-one] | ≤ 2 µM | ≤ 0.5 µM
6 | CN(Cc1ccccc1)C(=O)N1CCC2(CC1)CN(S(=O)(=O)c1ccc(C(F)F)cc1)c1ccccc12 [Compound I-178, N-benzyl-1-((4-(difluoromethyl)phenyl)sulfonyl)-N-methylspiro[indoline-3,4′-piperidine]-1′-carboxamide] | 2.01 to 8 µM | 0.51 to 1 µM
7 | CS(=O)(=O)c1ccc(S(=O)(=O)N2CC3(CCN(C(=O)OCc4ccccc4)CC3)c3ccccc32)cc1 [Compound I-180] | ≤ 2 µM | ≤ 0.5 µM
8 | CC(C)S(=O)(=O)c1ccc(S(=O)(=O)N2CC3(CCN(C(=O)OCc4ccccc4)CC3)c3ccccc32)cc1 [Compound I-181, benzyl 1-[4-(propane-2-sulfonyl)benzenesulfonyl]-1,2-dihydrospiro[indole-3,4′-piperidine]-1′-carboxylate] | ≤ 2 µM | ≤ 0.5 µM
9 | O=C(OCc1ccccc1)N1CCC2(CC1)CN(S(=O)(=O)c1ccc3c(c1)CCS3(=O)=O)c1ccccc12 [Compound I-182, benzyl 1-((1,1-dioxido-2,3-dihydrobenzo[b]thiophen-5-yl)sulfonyl)spiro[indoline-3,4′-piperidine]-1′-carboxylate] | ≤ 2 µM | ≥ 5.01 µM
10 | O=C(OCc1ccccc1)N1CCC2(CC1)CN(C(=O)c1ccccc1)c1ccccc12 [Compound I-184, benzyl 1-benzoyl-1,2-dihydrospiro[indole-3,4′-piperidine]-1′-carboxylate] | ≥ 10 µM | ≥ 5.01 µM
11 | O=C(OCc1ccccc1)N1CCC2(CC1)CN(S(=O)(=O)c1ccc(S(=O)(=O)C(F)F)cc1)c1ccccc12 [Compound I-186, benzyl 1-((4-((difluoromethyl)sulfonyl)phenyl)sulfonyl)spiro[indoline-3,4′-piperidine]-1′-carboxylate] | ≤ 2 µM | ≤ 0.5 µM
12 | O=C(OCc1ccccc1)N1CCC2(CC1)CN(S(=O)(=O)c1ccc(C(F)(F)F)nc1)c1ccccc12 [Compound I-187, benzyl 1-((6-(trifluoromethyl)pyridin-3-yl)sulfonyl)spiro[indoline-3,4′-piperidine]-1′-carboxylate] | ≤ 2 µM | 0.51 to 1 µM
13 | O=C(OCc1ccccc1)N1CCC2(CC1)CN(S(=O)(=O)c1ccc(C3CC3)cc1)c1ccccc12 [Compound I-188, benzyl 1-((4-cyclopropylphenyl)sulfonyl)spiro[indoline-3,4′-piperidine]-1′-carboxylate] | ≤ 2 µM | ≥ 5.01 µM
14 | CC1(C)Cc2cc(S(=O)(=O)N3CC4(CCN(C(=O)OCc5ccccc5)CC4)c4ccccc43)ccc2O1 [Compound I-189, benzyl 1-((2,2-dimethyl-2,3-dihydrobenzofuran-5-yl)sulfonyl)spiro[indoline-3,4′-piperidine]-1′-carboxylate] | ≤ 2 µM | ≤ 0.5 µM
15 | CC(C)C(=O)N1CC2(CCN(C(=O)OCc3ccccc3)CC2)c2ccccc21 [Compound I-190, benzyl 1-(2-methylpropanoyl)-1,2-dihydrospiro[indole-3,4′-piperidine]-1′-carboxylate] | ≥ 10 µM | ≥ 5.01 µM
16 | O=C(OCc1ccccc1)N1CCC2(CC1)CN(C(=O)C1(c3ccccc3)CC1)c1ccccc12 [Compound I-191, benzyl 1-(1-phenylcyclopropanecarbonyl)-1,2-dihydrospiro[indole-3,4′-piperidine]-1′-carboxylate] | 2.01 to 8 µM | ≥ 5.01 µM
17 | O=C(Nc1ccc2c(c1)CCO2)N1CCC2(CC1)CN(S(=O)(=O)c1ccc(C(F)F)cc1)c1ccccc12 [Compound I-219, 1-((4-(difluoromethyl)phenyl)sulfonyl)-N-(2,3-dihydrobenzofuran-5-yl)spiro[indoline-3,4′-piperidine]-1′-carboxamide] | ≥ 10 µM | ≥ 5.01 µM
18 | O=C(Nc1ccc2c(c1)OCO2)N1CCC2(CC1)CN(S(=O)(=O)c1ccc(C(F)F)cc1)c1ccccc12 [Compound I-220, N-(benzo[d][1,3]dioxol-5-yl)-1-((4-(difluoromethyl)phenyl)sulfonyl)spiro[indoline-3,4′-piperidine]-1′-carboxamide] | 2.01 to 8 µM | ≥ 5.01 µM
19 | O=C(Nc1cccc(C(F)F)c1)N1CCC2(CC1)CN(S(=O)(=O)c1ccc(C(F)F)cc1)c1ccccc12 [Compound I-221, N-(3-(difluoromethyl)phenyl)-1-((4-(difluoromethyl)phenyl)sulfonyl)spiro[indoline-3,4′-piperidine]-1′-carboxamide] | 2.01 to 8 µM | ≥ 5.01 µM
20 | O=C(NC1COc2ccccc2C1)N1CCC2(CC1)CN(S(=O)(=O)c1ccc(C(F)F)cc1)c1ccccc12 (stereo not drawn) [Compound I-222, N-(chroman-3-yl)-1-((4-(difluoromethyl)phenyl)sulfonyl)spiro[indoline-3,4′-piperidine]-1′-carboxamide] | ≤ 2 µM | ≥ 5.01 µM
21 | O=C(NC1CCOc2ccccc21)N1CCC2(CC1)CN(S(=O)(=O)c1ccc(C(F)F)cc1)c1ccccc12 (stereo not drawn) [Compound I-223, N-(chroman-4-yl)-1-((4-(difluoromethyl)phenyl)sulfonyl)spiro[indoline-3,4′-piperidine]-1′-carboxamide] | ≤ 2 µM | 0.51 to 1 µM
22 | O=C(Nc1ccc2c(c1)OCCO2)N1CCC2(CC1)CN(S(=O)(=O)c1ccc(C(F)F)cc1)c1ccccc12 [Compound I-225, 1-((4-(difluoromethyl)phenyl)sulfonyl)-N-(2,3-dihydrobenzo[b][1,4]dioxin-6-yl)spiro[indoline-3,4′-piperidine]-1′-carboxamide] | ≥ 10 µM | ≥ 5.01 µM
23 | COc1ccc(NC(=O)N2CCC3(CC2)CN(S(=O)(=O)c2ccc(C(F)F)cc2)c2ccccc23)cc1OC [Compound I-226, 1-((4-(difluoromethyl)phenyl)sulfonyl)-N-(3,4-dimethoxyphenyl)spiro[indoline-3,4′-piperidine]-1′-carboxamide] | ≥ 10 µM | ≥ 5.01 µM
24 | COc1ccc(NC(=O)N2CCC3(CC2)CN(S(=O)(=O)c2ccc(C(F)F)cc2)c2ccccc23)c(OC)c1 [Compound I-227, 1-((4-(difluoromethyl)phenyl)sulfonyl)-N-(2,4-dimethoxyphenyl)spiro[indoline-3,4′-piperidine]-1′-carboxamide] | 2.01 to 8 µM | ≥ 5.01 µM
25 | COc1cccc(NC(=O)N2CCC3(CC2)CN(S(=O)(=O)c2ccc(C(F)F)cc2)c2ccccc23)c1OC [Compound I-228, 1-((4-(difluoromethyl)phenyl)sulfonyl)-N-(2,3-dimethoxyphenyl)spiro[indoline-3,4′-piperidine]-1′-carboxamide] | ≤ 2 µM | ≥ 5.01 µM
26 | O=C(Nc1ccccc1)C1CCC2(CC1)CN(S(=O)(=O)c1ccc(C(F)F)cc1)c1ccccc12 (stereo not drawn) [Compound I-230, 1′-((4-(difluoromethyl)phenyl)sulfonyl)-N-phenylspiro[cyclohexane-1,3′-indoline]-4-carboxamide] | ≤ 2 µM | ≥ 5.01 µM
27 | CN(C(=O)C1CCC2(CC1)CN(S(=O)(=O)c1ccc(C(F)F)cc1)c1ccccc12)c1ccccc1 (stereo not drawn) [Compound I-234, 1′-((4-(difluoromethyl)phenyl)sulfonyl)-N-methyl-N-phenylspiro[cyclohexane-1,3′-indoline]-4-carboxamide] | ≤ 2 µM | ≥ 5.01 µM
28 | CN(Cc1ccccc1)C(=O)C1CCC2(CC1)CN(S(=O)(=O)c1ccc(C(F)F)cc1)c1ccccc12 (stereo not drawn) [Compound I-235, N-benzyl-1′-((4-(difluoromethyl)phenyl)sulfonyl)-N-methylspiro[cyclohexane-1,3′-indoline]-4-carboxamide] | ≤ 2 µM | ≥ 5.01 µM
29 | O=C(OCc1ccccc1)N1CCC2(CC1)CN(C(=O)Cc1ccc(C(F)F)cc1)c1ccccc12 [Compound I-246, benzyl 1-(2-(4-(difluoromethyl)phenyl)acetyl)spiro[indoline-3,4′-piperidine]-1′-carboxylate] | ≥ 10 µM | ≥ 5.01 µM
30 | O=C(OCc1ccccc1)N1CCC2(CC1)CN(C(=O)Nc1ccc(C(F)F)cc1)c1ccccc12 [Compound I-247, benzyl 1-((4-(difluoromethyl)phenyl)carbamoyl)spiro[indoline-3,4′-piperidine]-1′-carboxylate] | ≥ 10 µM | ≥ 5.01 µM
